ChEMBL document CHEMBL3885881, “DrugMatrix”

Species: Rattus norvegicus
Test: DrugMatrix - Regimen: Daily Repeat
Format: toxicity, organism-based, Sprague-Dawley
Design: regimen Daily Repeat, gender Male, age 6-8 weeks
Conditions: in vivo, po, route oral GAVAGE, vehicle .5 % CMC; for ABSOLUTE BASOPHIL / ABSOLUTE EOSINOPHIL / ABSOLUTE LYMPHOCYTE / ABSOLUTE MONOCYTE / ABSOLUTE SEGMENTED NEUTROPHIL / BASOPHIL / EOSINOPHIL / ERYTHROCYTE COUNT / HEMATOCRIT / HEMOGLOBIN / LEUKOCYTE COUNT / LYMPHOCYTE / MEAN CORPUSCULAR HEMOGLOBIN / MEAN CORPUSCULAR HEMOGLOBIN CONCENTRATION / MONOCYTE / NEUTROPHIL / NUCLEATED RED BLOOD CELLS / PLATELET COUNT: tissue Blood; for ALANINE AMINOTRANSFERASE / ALBUMIN / ALKALINE PHOSPHATASE / ASPARTATE AMINOTRANSFERASE / BLOOD UREA NITROGEN / CARBON DIOXIDE / CHLORIDE / CHOLESTEROL / CREATININE / GLUCOSE / LACTATE DEHYDROGENASE / LIPASE / PHOSPHORUS / POTASSIUM / SODIUM / TOTAL BILIRUBIN / TOTAL PROTEIN / URIC ACID: tissue Plasma
[1] = 50 mg/kg, 72 h, dose level Low, time 3 day
[2] = 50 mg/kg, 120 h, dose level Low, time 5 day
[3] = 600 mg/kg, 72 h, dose level High, time 3 day
[4] = 600 mg/kg, 120 h, dose level High, time 5 day

## N[C@@H]1[C@H]2CN(c3nc4c(cc3F)c(=O)c(C(=O)O)cn4-c3ccc(F)cc3F)C[C@@H]12 [TROVAFLOXACIN]
[1]
  ABSOLUTE BASOPHIL: 0 CELLS/uL
  ABSOLUTE EOSINOPHIL: 332.33 CELLS/uL
  ABSOLUTE LYMPHOCYTE: 13247 CELLS/uL
  ABSOLUTE MONOCYTE: 338.33 CELLS/uL
  ABSOLUTE SEGMENTED NEUTROPHIL: 2282.33 CELLS/uL
  BASOPHIL: 0%
  EOSINOPHIL: 2%
  ERYTHROCYTE COUNT: 5.64 x10E6/uL
  HEMATOCRIT: 34.17%
  HEMOGLOBIN: 12.5 G/DL
  LEUKOCYTE COUNT: 16.2 x10E3/uL
  LYMPHOCYTE: 82%
  MEAN CORPUSCULAR HEMOGLOBIN: 22.13 pg
  MEAN CORPUSCULAR HEMOGLOBIN CONCENTRATION: 36.57 G/DL
  MONOCYTE: 2%
  NEUTROPHIL: 14%
  NUCLEATED RED BLOOD CELLS: 0 /100WBC
  PLATELET COUNT: 1160 x10E3/uL
  ALANINE AMINOTRANSFERASE: 50.67 u/L
  ALBUMIN: 4.23 G/DL
  ALKALINE PHOSPHATASE: 421 u/L
  ASPARTATE AMINOTRANSFERASE: 75.33 u/L
  BLOOD UREA NITROGEN: 16 mg/dL
  CARBON DIOXIDE: 27 mmol/L
  CHLORIDE: 102.33 MEQ/L
  CHOLESTEROL: 86.33 mg/dL
  CREATININE: 0.17 mg/dL
  GLUCOSE: 151 mg/dL
  LACTATE DEHYDROGENASE: 114.67 u/L
  LIPASE: 9.33 u/L
  PHOSPHORUS: 13.33 mg/dL
  POTASSIUM: 6.87 MEQ/L
  SODIUM: 148.2 MEQ/L
  TOTAL BILIRUBIN: 0.17 mg/dL
  TOTAL PROTEIN: 6.3 G/DL
  URIC ACID: 1.47 mg/dL
[2]
  ABSOLUTE BASOPHIL: 0 CELLS/uL
  ABSOLUTE EOSINOPHIL: 225.67 CELLS/uL
  ABSOLUTE LYMPHOCYTE: 14834.67 CELLS/uL
  ABSOLUTE MONOCYTE: 380.67 CELLS/uL
  ABSOLUTE SEGMENTED NEUTROPHIL: 2392.33 CELLS/uL
  BASOPHIL: 0%
  EOSINOPHIL: 1.33%
  ERYTHROCYTE COUNT: 5.73 x10E6/uL
  HEMATOCRIT: 34.4%
  HEMOGLOBIN: 12.63 G/DL
  LEUKOCYTE COUNT: 17.83 x10E3/uL
  LYMPHOCYTE: 82.67%
  MEAN CORPUSCULAR HEMOGLOBIN: 22.13 pg
  MEAN CORPUSCULAR HEMOGLOBIN CONCENTRATION: 36.73 G/DL
  MONOCYTE: 2%
  NEUTROPHIL: 14%
  NUCLEATED RED BLOOD CELLS: 0 /100WBC
  PLATELET COUNT: 1198 x10E3/uL
  ALANINE AMINOTRANSFERASE: 44.67 u/L
  ALBUMIN: 4 G/DL
  ALKALINE PHOSPHATASE: 375.33 u/L
  ASPARTATE AMINOTRANSFERASE: 95 u/L
  BLOOD UREA NITROGEN: 15.33 mg/dL
  CARBON DIOXIDE: 27.67 mmol/L
  CHLORIDE: 100.33 MEQ/L
  CHOLESTEROL: 77.67 mg/dL
  CREATININE: 0.14 mg/dL
  GLUCOSE: 165.33 mg/dL
  LACTATE DEHYDROGENASE: 482.33 u/L
  LIPASE: 9 u/L
  PHOSPHORUS: 13.63 mg/dL
  POTASSIUM: 6.38 MEQ/L
  SODIUM: 144.47 MEQ/L
  TOTAL BILIRUBIN: 0.13 mg/dL
  TOTAL PROTEIN: 5.9 G/DL
  URIC ACID: 2.13 mg/dL
[3]
  ABSOLUTE BASOPHIL: 0 CELLS/uL
  ABSOLUTE EOSINOPHIL: 206 CELLS/uL
  ABSOLUTE LYMPHOCYTE: 11774.33 CELLS/uL
  ABSOLUTE MONOCYTE: 306 CELLS/uL
  ABSOLUTE SEGMENTED NEUTROPHIL: 3013.67 CELLS/uL
  BASOPHIL: 0%
  EOSINOPHIL: 1.33%
  ERYTHROCYTE COUNT: 5.75 x10E6/uL
  HEMATOCRIT: 34.53%
  HEMOGLOBIN: 12.7 G/DL
  LEUKOCYTE COUNT: 15.3 x10E3/uL
  LYMPHOCYTE: 78.33%
  MEAN CORPUSCULAR HEMOGLOBIN: 22.13 pg
  MEAN CORPUSCULAR HEMOGLOBIN CONCENTRATION: 36.77 G/DL
  MONOCYTE: 2%
  NEUTROPHIL: 18.33%
  NUCLEATED RED BLOOD CELLS: 0 /100WBC
  PLATELET COUNT: 1258 x10E3/uL
  ALANINE AMINOTRANSFERASE: 35.33 u/L
  ALBUMIN: 4.27 G/DL
  ALKALINE PHOSPHATASE: 290.67 u/L
  ASPARTATE AMINOTRANSFERASE: 69.67 u/L
  BLOOD UREA NITROGEN: 19.67 mg/dL
  CARBON DIOXIDE: 25.33 mmol/L
  CHLORIDE: 106.33 MEQ/L
  CHOLESTEROL: 81.33 mg/dL
  CREATININE: 0.16 mg/dL
  GLUCOSE: 145 mg/dL
  LACTATE DEHYDROGENASE: 197 u/L
  LIPASE: 9.33 u/L
  PHOSPHORUS: 13.8 mg/dL
  POTASSIUM: 6.71 MEQ/L
  SODIUM: 151.87 MEQ/L
  TOTAL BILIRUBIN: 0.17 mg/dL
  TOTAL PROTEIN: 6.43 G/DL
  URIC ACID: 1.63 mg/dL
[4]
  ABSOLUTE BASOPHIL: 0 CELLS/uL
  ABSOLUTE EOSINOPHIL: 229.8 CELLS/uL
  ABSOLUTE LYMPHOCYTE: 12826.8 CELLS/uL
  ABSOLUTE MONOCYTE: 343 CELLS/uL
  ABSOLUTE SEGMENTED NEUTROPHIL: 1100.4 CELLS/uL
  BASOPHIL: 0%
  EOSINOPHIL: 1.6%
  ERYTHROCYTE COUNT: 5.94 x10E6/uL
  HEMATOCRIT: 35.56%
  HEMOGLOBIN: 12.98 G/DL
  LEUKOCYTE COUNT: 14.5 x10E3/uL
  LYMPHOCYTE: 88.4%
  MEAN CORPUSCULAR HEMOGLOBIN: 21.88 pg
  MEAN CORPUSCULAR HEMOGLOBIN CONCENTRATION: 36.5 G/DL
  MONOCYTE: 2.4%
  NEUTROPHIL: 7.6%
  NUCLEATED RED BLOOD CELLS: 0 /100WBC
  PLATELET COUNT: 1294.2 x10E3/uL
  ALANINE AMINOTRANSFERASE: 42 u/L
  ALBUMIN: 4.16 G/DL
  ALKALINE PHOSPHATASE: 348.4 u/L
  ASPARTATE AMINOTRANSFERASE: 67.4 u/L
  BLOOD UREA NITROGEN: 17.8 mg/dL
  CARBON DIOXIDE: 29.6 mmol/L
  CHLORIDE: 102 MEQ/L
  CHOLESTEROL: 83 mg/dL
  CREATININE: 0.15 mg/dL
  GLUCOSE: 156 mg/dL
  LACTATE DEHYDROGENASE: 129.8 u/L
  LIPASE: 9.8 u/L
  PHOSPHORUS: 14.22 mg/dL
  POTASSIUM: 6.78 MEQ/L
  SODIUM: 146.28 MEQ/L
  TOTAL BILIRUBIN: 0.14 mg/dL
  TOTAL PROTEIN: 6 G/DL
  URIC ACID: 1.88 mg/dL
